In assay [1] the test system is Desulfovibrio desulfuricans (Dd) Mo-FDH3, wild-type natively-purified (Mo-FDH3^WT). Conditions: cited from earlier work.
Assay [2] concerns Desulfovibrio vulgaris Hildenborough (DvH) FDH2, wild-type natively-purified (FDH2^WT), large subunit DVU2482 SEQ ID NO: 31, small subunit DVU2481 SEQ ID NO: …. Conditions: cited from earlier work.
The subject of assay [3] is Desulfovibrio vulgaris Hildenborough (DvH) Mo-FDH3, wild-type natively-purified (Mo-FDH3^WT). The note with it: pH 7.6, RT, 2 mM BV, 0.25 nM enzyme; Da Silva et al (2011); cited from earlier work.
The target of assay [4] is T1, Desulfovibrio vulgaris Hildenborough (DvH) FDH2, recombinant Strep-tag II-tagged (FDH2^Rec), large subunit DVU2482 SEQ ID NO: 31, small subunit DVU2481 SEQ ID N (Nitratidesulfovibrio vulgaris, UniProt Q728X0).
T1 sequence (Q728X0 36-1003): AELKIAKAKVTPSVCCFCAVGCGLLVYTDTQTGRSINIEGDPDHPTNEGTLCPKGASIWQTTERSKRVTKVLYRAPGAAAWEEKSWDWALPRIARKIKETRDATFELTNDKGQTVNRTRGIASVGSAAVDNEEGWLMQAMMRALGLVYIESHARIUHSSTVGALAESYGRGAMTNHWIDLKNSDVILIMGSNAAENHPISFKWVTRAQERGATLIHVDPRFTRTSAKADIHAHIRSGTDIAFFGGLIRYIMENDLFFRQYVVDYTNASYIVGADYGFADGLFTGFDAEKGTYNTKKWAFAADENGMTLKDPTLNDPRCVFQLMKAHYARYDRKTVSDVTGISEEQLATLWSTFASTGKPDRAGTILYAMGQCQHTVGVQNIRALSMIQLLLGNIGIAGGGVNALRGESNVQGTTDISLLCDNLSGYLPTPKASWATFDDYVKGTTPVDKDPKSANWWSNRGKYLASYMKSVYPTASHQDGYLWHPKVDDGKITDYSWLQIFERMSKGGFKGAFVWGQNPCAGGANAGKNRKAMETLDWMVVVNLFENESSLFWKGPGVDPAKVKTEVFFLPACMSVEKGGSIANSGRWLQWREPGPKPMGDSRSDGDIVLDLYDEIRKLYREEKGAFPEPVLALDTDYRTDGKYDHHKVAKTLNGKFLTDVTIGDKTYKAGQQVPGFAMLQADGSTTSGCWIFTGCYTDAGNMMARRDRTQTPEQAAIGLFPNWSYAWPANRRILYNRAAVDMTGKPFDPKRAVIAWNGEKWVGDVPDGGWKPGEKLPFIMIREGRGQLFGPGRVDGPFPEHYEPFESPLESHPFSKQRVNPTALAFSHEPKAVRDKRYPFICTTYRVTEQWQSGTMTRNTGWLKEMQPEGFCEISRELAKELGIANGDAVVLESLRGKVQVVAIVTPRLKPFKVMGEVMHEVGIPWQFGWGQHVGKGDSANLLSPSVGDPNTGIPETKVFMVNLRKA
T1 sequence (Q728X1 1-260 partner): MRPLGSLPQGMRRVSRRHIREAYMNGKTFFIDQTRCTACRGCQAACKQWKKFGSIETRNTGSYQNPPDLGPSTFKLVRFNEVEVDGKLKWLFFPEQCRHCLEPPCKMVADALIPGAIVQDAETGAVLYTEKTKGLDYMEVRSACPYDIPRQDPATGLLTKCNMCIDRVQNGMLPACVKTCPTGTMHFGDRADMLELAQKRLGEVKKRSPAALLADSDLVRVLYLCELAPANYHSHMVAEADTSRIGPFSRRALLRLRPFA
As to the kind of experiment: Benzyl viologen (BV) assay of formate oxidation.

In assay [5] the test system is Desulfovibrio gigas (Dg) W-FDH1, wild-type natively-purified (W-FDH1^WT). The note with it: pH 8.0, 37 °C, 7.5 mM BV, 35 nM enzyme; Mota (2011); cited from earlier work.
Assay [6] has as its target T1, Desulfovibrio vulgaris Hildenborough (DvH) FDH2, recombinant Strep-tag II-tagged (FDH2^Rec), large subunit DVU2482 SEQ ID NO: 31, small subunit DVU2481 SEQ ID N. As to the kind of experiment: PES/DCPIP assay of formate oxidation.
Where [7] appears, read: pH 7.6, 37 °C, 7.5 mM BV, 35 nM enzyme, Rivas et al (2007).
Setting [8] is: pH 8.0, 22 °C, 5 mM BV, 1 nM enzyme, Maia et al (2016).
Setting [9] is: pH 8.0, 37 °C, 7.5 mM BV, 35 nM enzyme, Mota (2011).
The mark [10] stands for this setting: BV (2 mM), anaerobic, 1 replicate, da Silva et al (2011), Table 4.
The mark [11] stands for this setting: pH 7.6, RT, 2 mM BV, 0.48 nM enzyme, Da Silva et al (2011).

Read-outs that look alike come from different tables or passages of the source.

Data on 1 compound can be found in patent US20250357519A1, “APPLICATIONS OF O2-INSENSITIVE FORMATE DEHYDROGENASE” (UNIVERSITY OF MARYLAND, BALTIMORE, priority 2022, published 2025).

The Km is the substrate concentration at which the rate is half of its maximum. Broadly, the kcat is the maximal rate divided by the concentration of active sites.

On to `O=CO` [formate], for which the Km in assay [1] (setting [7]) was 65 ± 8 µM; in assay [1] (setting [8]), 57 µM; in assay [1] (setting [9]), 64 µM; in assay [2] (setting [10]), 4 µM; in assay [2] (setting [11]), 4 µM; in assay [3], 8 µM. Moreover, in assay [5], the Km was 51 µM. Besides, the kcat in assay [1] (setting [7]) is 357 ± 18 s⁻¹; in assay [1] (setting [8]) it was 543 s⁻¹; in assay [1] (setting [9]) it was 347 s⁻¹; in assay [2] (setting [10]), 81 s⁻¹; in assay [2] (setting [11]) it was 81 s⁻¹; in assay [3], 262 s⁻¹. The kcat was 47 ± 2 s⁻¹ in assay [4] (2 mM BV (anaerobic), full progress curve global fit); 68 ± 5 s⁻¹ in assay [4] (BV (2 mM), anaerobic, initial velocities, 3 replicates, pH 8.0, 25 °C); 111 ± 16 s⁻¹ in assay [4] (BV (20 mM), anaerobic, initial velocities, 3 replicates, pH 8.0, 25 °C); 174 s⁻¹ in assay [5]; 354 ± 5 s⁻¹ in assay [6] (DCPIP (air), full progress curve global fit); 258 ± 3 s⁻¹ in assay [6] (DCPIP (anaerobic), full progress curve global fit). For the same compound, the kcat in assay [6] (PES/DCPIP, air, initial velocities, 10 replicates, pH 8.0) stood at 317 ± 14 s⁻¹; in assay [6] (PES/DCPIP, anaerobic, initial velocities, 5 replicates, pH 8.0), 220 ± 5 s⁻¹. Also, the “TN (kcat) relative to that obtained with 2 mM BV” value in assay [6] (PES/DCPIP, anaerobic full-progress curves vs 2 mM BV) is reported as around 5 fold. Besides, the “TN (kcat) for formate oxidation relative to Mo-Cys-FDH from Rhodobacter capsulatus” value in assay [6] (PES/DCPIP, comparator with NAD^+ as acceptor (ref 40)) is “roughly an order of magnitude”. The “binding constant (Km) for formate” value in assay [6] (general statement, 1.6 nM enzyme, formate 0 to 100 μM) is “low micromolar range”.
